Experiments:
ClpP1P2 complex in Mtb [1] = biological target: T1, ClpP1P2 complex in Mtb (Mycobacterium tuberculosis, UniProt P9WPC5); assay: ClpP1P2 peptidase activity assay, dose-response and IC50 determination; assay type: biochemical
Method: (§1) ClpP1P2 complex in Mtb can catalyze the hydrolysis of small peptides. Following previous protocols, we measure the in vitro inhibition of ClpP peptidase activity by monitoring the cleavage of fluorogenic peptide Ac-Pro-Lys-Met-AMC[65]–[67].
(§2) The solution is pre-incubated at room temperature for 2 hours. Then, 20 μL substrate buffer with Ac-Pro-Lys-Met-AMC is added (final concentration of Ac-Pro-Lys-Met-AMC is 10 μM; reaction buffer is the same with the above). Fluorescence (Ex/Em: 380/ 440 nm) is recorded for 120 min at 37 °C.
To determine IC50, candidate inhibitors are assayed at 9 or 10 gradient concentrations. […] IC50 is determined by the change of recorded fluorescence (as RFU) and gradient dilution of inhibitors concentration. Non-linear fit (log(inhibitor) vs. normalized response) is used for IC50 curve fitting.

ClpP1P2 complex in Mtb [2] = biological target: T1, ClpP1P2 complex in Mtb; assay: ClpP1P2 peptidase activity assay, single-dose response; assay type: biochemical; conditions: read-out: Inhibition rate relative to Bortezomib
Method: as §1, §2

[3] = source data Figure4b, screening hits
[4] = source data Figure4b, synthesized compounds

T1 sequence (P9WPC5 whole entry, looked up, one chain of several): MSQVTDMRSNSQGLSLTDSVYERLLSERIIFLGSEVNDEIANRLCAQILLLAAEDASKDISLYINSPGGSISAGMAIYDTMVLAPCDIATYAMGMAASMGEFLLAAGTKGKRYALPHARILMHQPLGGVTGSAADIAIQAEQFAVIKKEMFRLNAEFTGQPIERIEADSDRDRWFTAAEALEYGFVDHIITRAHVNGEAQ

Row | Compound | IC50 (ClpP1P2 complex in Mtb [1]; [3]) | IC50 (ClpP1P2 complex in Mtb [1]; [4]) | also measured
1 | Oc1c(Cc2ccccc2)ccc2ccccc12 [Analog-004] | 19.6 µM |  | 
2 | NS(=O)(=O)c1ccc(NC(=O)Nc2ccc(Cl)c(C(F)(F)F)c2)cc1 [Syn-A003-01] |  | 20.3 µM | 
3 | Cc1ccc(C(=O)N2C(=O)c3ccccc3C2=O)cc1 [Syn-A005-01] |  | 5.34 µM | 
4 | NS(=O)(=O)c1ccc(NC(=O)Nc2cc(Cl)cc(Cl)c2)cc1 [Analog-003] | 10.1 µM |  | inhibition at 20 µM (ClpP1P2 complex in Mtb [2]): 48%
5 | CN(C)S(=O)(=O)c1ccc(C(=O)N2C(=O)c3cccc(N)c3C2=O)cc1 [Analog-005] | 1.88 µM |  | IC50 (ClpP1P2 complex in Mtb [1]; Mtb ClpP, dose-response assay, Fig. 4b and text): 1.9 µM
6 | CN(C)S(=O)(=O)c1ccc(C(=O)N2C(=O)c3ccccc3C2=O)cc1 [Syn-A005-02] |  | 3.4 µM | 
7 | O=C(Nc1ccc(F)cc1)Nc1ccc(Br)c(C(F)(F)F)c1 [Analog-001] | 17.2 µM |  | 
8 | O=C(Nc1ccccc1F)Nc1ccccc1NC(=O)c1ccccc1Cl [Analog-002] | 19.9 µM |  | 
